According to patent publication US9144633B2, “Implantable devices coated with insulin-mimetic vanadium compounds and methods thereof” (RUTGERS, THE STATE UNIVERSITY OF NEW JERSEY, priority 2010, dated 2015):
Read-outs that look alike come from different tables or passages of the source.

Key:
[1] = cited from earlier work
[2] = system: bone fracture; assay: Local VAC application without a carrier, fracture healing (preliminary data); type: in vivo; settings: at the dosages tested
Description: This evidence opens up many future applications to the use of VAC alone, or incorporated with a carrier as an option for fracture healing.

[3] = system: bone homeostasis; settings: cited from earlier work
[4] = system: kidney and liver; settings: VAC treatment; cited from earlier work

## CC(=O)/C=C(/C)[O-].CC(=O)/C=C(/C)[O-].[O]=[V+2] [VAC, vanadyl acetylacetonate]
[1]; after several days
  tolerance / signs of toxicity: no signs of toxicity
[1]; widely distributed to all tissues
  tissue distribution / accumulation: greatest accumulation was within femur tissue
[2]
  speed of bone healing versus saline controls: more than twice as rapidly as saline controls
[3]; diabetic rats
  effect on bone parameters: improved the ultimate strength, Tb,Th, MAR, and plasma osteocalcin
[3]; normal rats
  effect on bone parameters: did not affect any bone parameters
[4]
  function or structure of kidney and liver: does not impair the function or structure of kidney and liver
